# Assay results taken from PubChem BioAssay AID212 (DTP/NCI, 2004).
# Several values for one entry are separate records, joined by “and”; a condition that tells them apart may be missing. Equal entries are not always repeated. Results filed as inconclusive are left out.
# Test system: BDF1 mice, colon carcinoma 38 sc, T/C %
# Experiment: NCI In Vivo Anticancer Drug Screen. Data for tumor model Colon Carcinoma 38 (subcutaneous) in B6D2F1 (BDF1) mice
# Settings: endpoint: median tumor weight (est.), higher = larger tumour
# In short: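 T/C readout: treated group (T) measurement over vehicle control group (C) measurement. Endpoint is survival or tumor size in mice bearing a transplanted tumor.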
# [1] = dose: 50.0 mg/kg/injection, schedule: Q07DX002 (ip), vehicle: saline with Tween-80
# [2] = dose: 100.0 mg/kg/injection, schedule: Q07DX002 (ip), vehicle: saline with Tween-80
# [3] = dose: 200.0 mg/kg/injection, schedule: Q07DX002 (ip), vehicle: saline with Tween-80
# [4] = dose: 100.0 mg/kg/injection, schedule: Q07DX002 (ip), vehicle: Klucel (hydroxypropylcellulose) (HPC)
# [5] = dose: 200.0 mg/kg/injection, schedule: Q07DX002 (ip), vehicle: Klucel (hydroxypropylcellulose) (HPC)
# [6] = dose: 400.0 mg/kg/injection, schedule: Q07DX002 (ip), vehicle: Klucel (hydroxypropylcellulose) (HPC)
# [7] = dose: 12.5 mg/kg/injection, schedule: Q07DX002 (ip), vehicle: Klucel (hydroxypropylcellulose) (HPC)
# [8] = dose: 25.0 mg/kg/injection, schedule: Q07DX002 (ip), vehicle: Klucel (hydroxypropylcellulose) (HPC)
# [9] = dose: 50.0 mg/kg/injection, schedule: Q07DX002 (ip), vehicle: Klucel (hydroxypropylcellulose) (HPC)
# [10] = dose: 25.0 mg/kg/injection, schedule: Q07DX002 (ip), vehicle: saline with Tween-80
# [11] = dose: 400.0 mg/kg/injection, schedule: Q07DX002 (ip), vehicle: saline with Tween-80
# [12] = dose: 25.0 mg/kg/injection, schedule: Q07DX002 (ip), vehicle: saline
# [13] = dose: 50.0 mg/kg/injection, schedule: Q07DX002 (ip), vehicle: saline
# [14] = dose: 100.0 mg/kg/injection, schedule: Q07DX002 (ip), vehicle: saline
# [15] = dose: 200.0 mg/kg/injection, schedule: Q07DX002 (ip), vehicle: saline
# [16] = dose: 200.0 mg/kg/injection, schedule: Q07DX002 (ip), vehicle: suspension in saline
# [17] = dose: 400.0 mg/kg/injection, schedule: Q07DX002 (ip), vehicle: suspension in saline
# [18] = dose: 112.0 mg/kg/injection, schedule: Q07DX002 (ip), vehicle: saline with Tween-80
compound,measurement,setting,value
CC(=O)OC1(C)CC(C)C(=O)C(C(O)CC2CC(=O)NC(=O)C2)C1 (stereo not drawn),T/C,"dose: 47.0 micrograms/kg/injection, schedule: Q07DX002 (ip), vehicle: saline",106 % of control
same,T/C,"dose: 94.0 micrograms/kg/injection, schedule: Q07DX002 (ip), vehicle: saline",123 % of control
same,T/C,"dose: 188.0 micrograms/kg/injection, schedule: Q07DX002 (ip), vehicle: saline",116 % of control
same,T/C,"dose: 375.0 micrograms/kg/injection, schedule: Q07DX002 (ip), vehicle: saline",117 % of control
same,T/C,"dose: 750.0 micrograms/kg/injection, schedule: Q07DX002 (ip), vehicle: saline",101 % of control
C=C(C)[C@@H]1CC[C@@H]2C(=CC[C@]3(C)C([C@H](C)CC/C=C(/C)C(=O)O)CC[C@@]23C)[C@@]1(C)CCC(=O)O (stereo partly drawn),T/C,"dose: 50.0 mg/kg/injection, schedule: Q07DX002 (ip), vehicle: saline + alcohol",90 % of control
same,T/C,"dose: 100.0 mg/kg/injection, schedule: Q07DX002 (ip), vehicle: saline + alcohol",91 % of control
same,T/C,"dose: 200.0 mg/kg/injection, schedule: Q07DX002 (ip), vehicle: saline + alcohol",105 % of control
same,T/C,"dose: 400.0 mg/kg/injection, schedule: Q07DX002 (ip), vehicle: saline + alcohol",45 % of control
O=C(O)/C=C/C(=O)N1Cc2cc3ccccc3nc2C1,T/C,"dose: 12.5 mg/kg/injection, schedule: Q07DX002 (ip), vehicle: saline with Tween-80",84 % of control
same,T/C,[1],89 % of control
same,T/C,[2],173 % of control
same,T/C,[3],104 % of control
O=C(O)Cc1cc(O)cc2c(=O)cc(-c3ccccc3)oc12,T/C,[4],52 % of control
same,T/C,[5],63 % of control
same,T/C,[6],103 % of control
COc1ccc2c(c1)CCC(c1ccccc1)=C2c1ccc(OCCN2CCCC2)cc1,T/C,[7],68 % of control and 85 % of control
same,T/C,[8],83 % of control and 87 % of control
same,T/C,[9],70 % of control
same,T/C,[4],77 % of control and 79 % of control
same,T/C,[5],100 % of control
NC(=S)N/N=C/c1ccc(OC(=O)COc2ccccc2)cn1,T/C,[10],88 % of control
same,T/C,[1],88 % of control
same,T/C,[2],55 % of control
same,T/C,[3],72 % of control
same,T/C,[11],57 % of control
O=c1cc[nH]c(=O)o1,T/C,"dose: 12.2 mg/kg/injection, schedule: Q01DX009 (ip), vehicle: water",119 % of control
same,T/C,"dose: 18.5 mg/kg/injection, schedule: Q01DX009 (ip), vehicle: water",75 % of control
same,T/C,"dose: 28.0 mg/kg/injection, schedule: Q01DX009 (ip), vehicle: water",83 % of control
O=C(NO)c1ccccc1,T/C,[12],70 % of control
same,T/C,"dose: 25.0 mg/kg/injection, schedule: Q07DX002 (ip), vehicle: suspension in saline",168 % of control
same,T/C,[13],83 % of control
same,T/C,[14],63 % of control
same,T/C,[15],80 % of control
same,T/C,[16],165 % of control
same,T/C,"dose: 400.0 mg/kg/injection, schedule: Q07DX002 (ip), vehicle: saline",70 % of control
same,T/C,[17],103 % of control
same,T/C,"dose: 800.0 mg/kg/injection, schedule: Q07DX002 (ip), vehicle: saline",89 % of control
same,T/C,"dose: 800.0 mg/kg/injection, schedule: Q07DX002 (ip), vehicle: suspension in saline",105 % of control
CCN(Cc1ccc(Cl)c(Cl)c1)c1ccc2nc(N)nc(N)c2c1C,T/C,"dose: 6.25 mg/kg/injection, schedule: Q07DX002 (ip), vehicle: distilled water + Tween-80",165 % of control
same,T/C,"dose: 12.5 mg/kg/injection, schedule: Q07DX002 (ip), vehicle: distilled water + Tween-80",206 % of control
same,T/C,"dose: 100.0 mg/kg/injection, schedule: Q07DX002 (ip), vehicle: distilled water + Tween-80",46 % of control
CCOC(=O)CC(SP(=S)(OC)OC)C(=O)OCC (stereo not drawn),T/C,"dose: 50.0 mg/kg/injection, schedule: Q07DX002 (ip), vehicle: suspension in saline",114 % of control
same,T/C,"dose: 56.0 mg/kg/injection, schedule: Q07DX002 (ip), vehicle: saline with Tween-80",67 % of control
same,T/C,"dose: 100.0 mg/kg/injection, schedule: Q07DX002 (ip), vehicle: suspension in saline",119 % of control
same,T/C,[18],102 % of control
same,T/C,[16],49 % of control
same,T/C,"dose: 225.0 mg/kg/injection, schedule: Q07DX002 (ip), vehicle: saline with Tween-80",88 % of control
same,T/C,[17],69 % of control
C[Si](C)(CCl)N[Si](C)(C)CCl,T/C,[1],99 % of control
same,T/C,[2],100 % of control
same,T/C,[11],150 % of control
CC[C@H]1CN2CCc3cc(OC)c(OC)cc3[C@@H]2C[C@@H]1C[C@H]1NCCc2cc(O)c(OC)cc21,T/C,"dose: 3.0 mg/kg/injection, schedule: Q07DX002 (ip), vehicle: suspension in saline",101 % of control
same,T/C,"dose: 6.0 mg/kg/injection, schedule: Q07DX002 (ip), vehicle: suspension in saline",110 % of control
same,T/C,"dose: 12.0 mg/kg/injection, schedule: Q07DX002 (ip), vehicle: suspension in saline",98 % of control
same,T/C,"dose: 24.0 mg/kg/injection, schedule: Q07DX002 (ip), vehicle: suspension in saline",89 % of control
Cc1cc(C)c(-c2cc(O)c(C)cc2O)c(C)c1,T/C,[7],83 % of control
same,T/C,[9],82 % of control
C[C@]12CC[C@H]3[C@@H](CCC4=C[C@@H](OC5OCC(OC6OC(CO)C(O)C(O)C6O)C(O)C5O)CC[C@@]43C=O)[C@@]1(O)CCC2C1=CC(=O)OC1 (stereo partly drawn),T/C,"dose: 0.31 mg/kg/injection, schedule: Q07DX003 (ip), vehicle: Klucel (hydroxypropylcellulose) (HPC)",106 % of control
same,T/C,"dose: 1.25 mg/kg/injection, schedule: Q07DX003 (ip), vehicle: Klucel (hydroxypropylcellulose) (HPC)",53 % of control
same,T/C,"dose: 2.5 mg/kg/injection, schedule: Q07DX003 (ip), vehicle: Klucel (hydroxypropylcellulose) (HPC)",102 % of control
same,T/C,"dose: 5.0 mg/kg/injection, schedule: Q07DX003 (ip), vehicle: Klucel (hydroxypropylcellulose) (HPC)",105 % of control
same,T/C,"dose: 10.0 mg/kg/injection, schedule: Q07DX003 (ip), vehicle: Klucel (hydroxypropylcellulose) (HPC)",95 % of control
CC(C)NCC(O)COc1ccc(O)c(O)c1 (stereo not drawn),T/C,[14],121 % of control
same,T/C,[15],93 % of control
CC(=O)[O][Pb]([O]C(C)=O)([c]1ccccc1)[c]1ccccc1,T/C,[7],216 % of control
same,T/C,[5],72 % of control
CC1(C)N=C(N)N=C(N)N1c1ccc(F)c(C(F)(F)F)c1,T/C,"dose: 1.56 mg/kg/injection, schedule: Q07DX002 (ip), vehicle: saline",87 % of control
same,T/C,"dose: 6.25 mg/kg/injection, schedule: Q07DX002 (ip), vehicle: saline",81 % of control and 84 % of control
same,T/C,"dose: 12.5 mg/kg/injection, schedule: Q07DX002 (ip), vehicle: saline",50 % of control and 64 % of control
same,T/C,"dose: 12.5 mg/kg/injection, schedule: Q07DX003 (ip), vehicle: suspension in saline",169 % of control
same,T/C,[12],79 % of control and 91 % of control
same,T/C,"dose: 25.0 mg/kg/injection, schedule: Q07DX003 (ip), vehicle: suspension in saline",161 % of control
same,T/C,[13],40 % of control and 60 % of control
same,T/C,"dose: 50.0 mg/kg/injection, schedule: Q07DX003 (ip), vehicle: suspension in saline",95 % of control
same,T/C,"dose: 100.0 mg/kg/injection, schedule: Q07DX003 (ip), vehicle: suspension in saline",104 % of control
Cc1ccc(C2NC(=O)c3ccccc3N2)s1 (stereo not drawn),T/C,[8],99 % of control
same,T/C,[9],92 % of control
same,T/C,[4],103 % of control
same,T/C,[5],92 % of control
same,T/C,[6],84 % of control
same,T/C,"dose: 800.0 mg/kg/injection, schedule: Q07DX002 (ip), vehicle: Klucel (hydroxypropylcellulose) (HPC)",90 % of control
Nc1ccc(S(N)(=O)=O)cc1,T/C,[2],103 % of control
same,T/C,[18],82 % of control and 100 % of control
same,T/C,[11],122 % of control
same,T/C,"dose: 800.0 mg/kg/injection, schedule: Q07DX002 (ip), vehicle: saline with Tween-80",76 % of control
same,T/C,"dose: 1600.0 mg/kg/injection, schedule: Q07DX002 (ip), vehicle: saline with Tween-80",101 % of control
same,T/C,"dose: 1800.0 mg/kg/injection, schedule: Q07DX002 (ip), vehicle: saline with Tween-80",80 % of control and 84 % of control
COC(=Nc1ccccc1)SSC(C)C,T/C,[10],99 % of control
same,T/C,[1],84 % of control
same,T/C,[2],88 % of control
same,T/C,[3],100 % of control
same,T/C,[11],96 % of control
